# Assay results published in patent US12590062B2, “PD-1/PD-L1 inhibitors” (Gilead Sciences, Inc., priority 2017, dated 2026).
# What was measured:
# PD-1/PD-L1 interaction = target: T1, PD-1/PD-L1 interaction (Homo sapiens, UniProt Q9NZQ7); assay: PD-1/PD-L1 NFAT reporter co-culture assay; assay type: cell-based; conditions: Jurkat PD-1 NFAT-luciferase cells co-cultured with aAPC-PD-L1 CHO cells, 6 hrs at 37° C.; read-out: EC50 NFAT Luciferase
# T1 construct: expressed in transfected cells; host or cells: CHO cells (aAPC-PD-L1) co-cultured with Jurkat cells overexpressing PD-1 and an NFAT-luciferase reporter
# How it was run: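 Jurkat cells overexpressing PD-1 with NFAT-luciferase mixed with compounds and plated onto CHO aAPCs expressing anti-CD3 and PD-L1, RPMI with 2% FBS. Co-culture 6 h at 37 °C; luminescence read with ONE-Glo. EC50 from four-parameter fit.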
# PD-1/PD-L1 = PD-1/PD-L1 (Homo sapiens, UniProt Q9NZQ7); assay: PD-1/PD-L1 biochemical protein-protein interaction assay (ALPHA); assay type: binding; conditions: 0.3 nM His tagged PD-L1, 2.5 nM biotinylated Fc-PD-1, 60 minutes at 25° C., read-out: IC50 PD-L1-PD-1 Alpha IC50-mono PD-L1-fcP-D1
# How it was run: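 IC50 values derive from four-parameter fits of ALPHA signal decrease. Assay: 0.3 nM His-tagged PD-L1 with 2.5 nM biotinylated Fc-PD-1, Hepes pH 7.4 with 0.005% Tween 20 and 0.01% BSA, 60 min at 25° C, then anti-His acceptor and streptavidin donor beads.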
# PD-L1 = target: T2, PD-L1 (Homo sapiens, UniProt Q9NZQ7); assay: PD-L1/PD-L1 dimerization biochemical protein-protein interaction assay (ALPHA); assay type: binding; conditions: compound-induced PD-L1 dimerization, head prints '1 nM' (0.5 nM His-tagged PD-L1 and 0.5 nM FLAG-tagged PD-L1), read-out: AC50 PDL1 Dimer Alpha 1 nM
# T2 construct: determine if they can specifically dimerize the extracellular domains of PD-L1
# Description: PD-L1/PD-L1 Dimerization Biochemical Protein-Protein Interaction Assay:
# Compounds were tested in biochemical protein-protein interaction assays to determine if they can specifically dimerize the extracellular domains of PD-L1. Dimerization of the proteins (His-tagged PD-L1 and FLAG-tagged PD-L1) is measured using a bead based Amplified Luminescent Proximity Homogeneous Assay (ALPHA) platform. […] Assays are performed in 25 mM Hepes (pH 7.4), 150 mM NaCl, 3.4 mM EDTA, 0.005% Tween 20, and 0.01% BSA. Final protein concentration in the assays were 0.5 nM (His tagged PD-L) and 0.5 nM (FLAG tagged PD-L1). After an assay reaction time of 2 hours at 25° C., 20 μg/mL (final assay concentration) ALPHA assay acceptor beads (anti-His coated) were added and incubated for 60 minutes at 25° C. Binding was measured following a final 60 minute incubation with 40 μg/mL (final assay concentration) ALPHA assay donor beads (anti-FLAG coated). AC50 values were calculated from the fit of the dose-response curves to a four-parameter equation (Table 3).
# T2 sequence (Q9NZQ7 19-238 limits assumed): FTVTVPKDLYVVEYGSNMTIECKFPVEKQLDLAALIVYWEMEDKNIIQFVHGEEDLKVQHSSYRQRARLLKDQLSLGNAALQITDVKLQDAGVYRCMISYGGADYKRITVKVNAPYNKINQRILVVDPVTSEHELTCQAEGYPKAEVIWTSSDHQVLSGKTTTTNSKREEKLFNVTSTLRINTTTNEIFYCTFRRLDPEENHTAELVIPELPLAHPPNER
# T2 sequence (Q9NZQ7 19-238 limits assumed): as above
# PD-1/PD-L1, sequence (Q9NZQ7 19-238 limits assumed): as above
# T1 sequence (Q9NZQ7 19-290): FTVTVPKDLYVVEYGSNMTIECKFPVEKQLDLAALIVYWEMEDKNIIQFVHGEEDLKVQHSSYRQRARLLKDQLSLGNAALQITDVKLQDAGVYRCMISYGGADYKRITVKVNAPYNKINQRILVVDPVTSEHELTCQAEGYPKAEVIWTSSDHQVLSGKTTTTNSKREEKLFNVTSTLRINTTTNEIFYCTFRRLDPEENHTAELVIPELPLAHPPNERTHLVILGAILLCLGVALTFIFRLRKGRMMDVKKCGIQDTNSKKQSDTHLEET
structure (smiles),measurement,setting,value
"Cc1c(COc2cc(OCc3cncc(C#N)c3)c(CNC[C@@H](O)CC(=O)O)cc2Cl)cccc1-c1cccc(COc2cc(OCc3cncc(C#N)c3)c(CNC[C@@H](O)CC(=O)O)cc2Cl)c1C [Example 66, (3S,3′S)-4,4′-((((((2,2′-dimethyl-[1,1′-biphenyl]-3,3′-diyl)bis(methylene))bis(oxy))bis(5-chloro-2-((5-cyanopyridin-3-yl)methoxy)-4,1-phenylene))bis(methylene))bis(azanediyl))bis(3-hydroxybutanoic acid)]",EC50,PD-1/PD-L1 interaction,338 nM
same,IC50,PD-1/PD-L1,0.4 nM
same,AC50,PD-L1,370 nM
"Cc1c(COc2nc(OCc3cccnc3)c(CNC[C@@H](O)CC(=O)O)cc2Br)cccc1-c1cccc(COc2nc(OCc3cccnc3)c(CNC[C@@H](O)CC(=O)O)cc2Br)c1C [Example 137, (3S,3′S)-4,4′-((((((2,2′-dimethyl-[1,1′-biphenyl]-3,3′-diyl)bis(methylene))bis(oxy))bis(5-bromo-2-(pyridin-3-ylmethoxy)pyridine-6,3-diyl))bis(methylene))bis(azanediyl))bis(3-hydroxybutanoic acid)]",EC50,PD-1/PD-L1 interaction,1450 nM
same,IC50,PD-1/PD-L1,0.6 nM
same,AC50,PD-L1,195 nM
"N#Cc1cncc(COc2nc(OCc3cccc(-c4cccc(COc5nc(OCc6cncc(C#N)c6)c(CNC[C@H](O)CC(=O)O)cc5Br)c4Cl)c3Cl)c(Br)cc2CNC[C@H](O)CC(=O)O)c1 [Example 196, (3R,3′R)-4,4′-((((((2,2′-Dichloro-[1,1′-biphenyl]-3,3′-diyl)bis(methylene))bis(oxy))bis(5-bromo-2-((5-cyanopyridin-3-yl)methoxy)pyridine-6,3-diyl))bis(methylene))bis(azanediyl))bis(3-hydroxybutanoic acid)]",EC50,PD-1/PD-L1 interaction,151 nM
same,AC50,PD-L1,223 nM
"Cc1c(COc2cc(OCc3cncc(C#N)c3)c(CNC[C@@H](O)CC(=O)O)cc2Cl)cccc1-c1cccc(-c2ccc3oc(CNC[C@@H](O)CC(=O)O)cc3c2)c1C [Example 210, (S)-4-(((5-(3′-((4-((((S)-3-carboxy-2-hydroxypropyl)amino)methyl)-2-chloro-5-((5-cyanopyridin-3-yl)methoxy)phenoxy)methyl)-2,2′-dimethyl-[1,1′-biphenyl]-3-yl)benzofuran-2-yl)methyl)amino)-3-hydroxybutanoic acid]",EC50,PD-1/PD-L1 interaction,114 nM
same,AC50,PD-L1,83.1 nM
"Cc1c(COc2cc(OCc3cc(C#N)ccn3)c(CNC[C@@H](O)CC(=O)O)cc2Cl)cccc1-c1cccc(COc2cc(OCc3cc(C#N)ccn3)c(CNC[C@@H](O)CC(=O)O)cc2Cl)c1C [Example 225, (3S,3′S)-4,4′-((((((2,2′-dimethyl-[1,1′-biphenyl]-3,3′-diyl)bis(methylene))bis(oxy))bis(5-chloro-2-((4-cyanopyridin-2-yl)methoxy)-4,1-phenylene))bis(methylene))bis(azanediyl))bis(3-hydroxybutanoic acid)]",EC50,PD-1/PD-L1 interaction,145 nM
same,AC50,PD-L1,423 nM
"CC(C)(NCc1cc(Cl)c(O[C@H]2CCc3c(-c4cccc(-c5ccc(S(N)(=O)=O)cc5)c4Cl)cccc32)nc1OCc1cncc(C#N)c1)C(=O)O [Example 289, (S)-2-(((5-chloro-6-((4-(2-chloro-4′-sulfamoyl-[1,1′-biphenyl]-3-yl)-2,3-dihydro-1H-inden-1-yl)oxy)-2-((5-cyanopyridin-3-yl)methoxy)pyridin-3-yl)methyl)amino)-2-methylpropanoic acid]",EC50,PD-1/PD-L1 interaction,70 nM
same,IC50,PD-1/PD-L1,0.075 nM
same,AC50,PD-L1,≥ 10000 nM
"CN1CCCC1c1ccc(-c2cccc(-c3cccc4c3CC[C@@H]4Oc3nc(OCc4cncc(C#N)c4)c(CN[C@@](C)(CO)C(=O)O)cc3Cl)c2Cl)cc1 (stereo partly drawn) [Example 290, (2S)-2-(((5-chloro-6-(((1S)-4-(2-chloro-4′-(1-methylpyrrolidin-2-yl)-[1,1′-biphenyl]-3-yl)-2,3-dihydro-1H-inden-1-yl)oxy)-2-((5-cyanopyridin-3-yl)methoxy)pyridin-3-yl)methyl)amino)-3-hydroxy-2-methylpropanoic acid]",EC50,PD-1/PD-L1 interaction,311 nM
same,IC50,PD-1/PD-L1,0.068 nM
same,AC50,PD-L1,25.1 nM
"N#Cc1cncc(COc2nc(O[C@H]3CCc4c(-c5cccc(-c6ccc(OCCNCCO)cc6)c5Cl)cccc43)c(Cl)cc2CNC[C@@H](O)CC(=O)O)c1 [Example 291, (S)-4-(((5-chloro-6-(((S)-4-(2-chloro-4′-(2-((2-hydroxyethyl)amino)ethoxy)-[1,1′-biphenyl]-3-yl)-2,3-dihydro-1H-inden-1-yl)oxy)-2-((5-cyanopyridin-3-yl)methoxy)pyridin-3-yl)methyl)amino)-3-hydroxybutanoic acid]",EC50,PD-1/PD-L1 interaction,46 nM
same,IC50,PD-1/PD-L1,0.175 nM
same,AC50,PD-L1,27.5 nM
"Cc1c(COc2cc(OCc3cncc(C#N)c3)c(CN[C@@](C)(CO)C(=O)O)cc2Cl)cccc1-c1cccc(-c2ccc(CC3CCCN3)cc2)c1C (stereo partly drawn) [Example 292, (2S)-2-((5-chloro-2-((5-cyanopyridin-3-yl)methoxy)-4-((2,2′-dimethyl-4″-(pyrrolidin-2-ylmethyl)-[1,1′:3′,1″-terphenyl]-3-yl)methoxy)benzyl)amino)-3-hydroxy-2-methylpropanoic acid]",EC50,PD-1/PD-L1 interaction,615 nM
same,IC50,PD-1/PD-L1,0.509 nM
same,AC50,PD-L1,230 nM
"Cc1c(COc2cc(OCc3cncc(C#N)c3)c(CNC[C@@H](O)CC(=O)O)cc2Cl)cccc1-c1cccc(-c2ccc3c(CNC[C@@H](O)CC(=O)O)cccc3c2)c1C [Example 293, (S)-4-(((6-(3′-((4-((((S)-3-carboxy-2-hydroxypropyl)amino)methyl)-2-chloro-5-((5-cyanopyridin-3-yl)methoxy)phenoxy)methyl)-2,2′-dimethyl-[1,1′-biphenyl]-3-yl)naphthalen-1-yl)methyl)amino)-3-hydroxybutanoic acid]",EC50,PD-1/PD-L1 interaction,73 nM
same,IC50,PD-1/PD-L1,0.226 nM
same,AC50,PD-L1,125 nM
"Cc1c(COc2cc(O)c(CNCCCP(=O)(O)O)cc2Cl)cccc1-c1cccc(COc2cc(OCc3cncc(C#N)c3)c(CNCCCP(=O)(O)O)cc2Cl)c1C [Example 294, (3-((5-chloro-4-((3′-((2-chloro-5-((5-cyanopyridin-3-yl)methoxy)-4-(((3-phosphonopropyl)amino)methyl)phenoxy)methyl)-2,2′-dimethyl-[1,1′-biphenyl]-3-y)methoxy)-2-hydroxybenzyl)amino)propyl)phosphonic acid]",EC50,PD-1/PD-L1 interaction,714 nM
same,IC50,PD-1/PD-L1,9.24 nM
same,AC50,PD-L1,547 nM
C[C@@](CO)(NCc1cc(Cl)c(O[C@H]2CCc3c(-c4cccc5c4CC[C@@H]5Oc4nc(OCc5cncc(C#N)c5)c(CNCCO)cc4Cl)cccc32)nc1OCc1cncc(C#N)c1)C(=O)O [Example 295],EC50,PD-1/PD-L1 interaction,279 nM
same,IC50,PD-1/PD-L1,0.312 nM
same,AC50,PD-L1,67.6 nM
"Cc1c(OCc2cc(OCc3cncc(C#N)c3)c(CN[C@@](C)(CO)C(=O)O)cc2Cl)cccc1-c1cccc(-c2ccc(OCCN[C@@](C)(CO)C(=O)O)cc2)c1C [Example 388, (S)-2-((4-(((4″-(2-(((S)-2-carboxy-1-hydroxypropan-2-yl)amino)ethoxy)-2,2′-dimethyl-[1,1′:3′,1″-terphenyl]-3-yl)oxy)methyl)-5-chloro-2-((5-cyanopyridin-3-yl)methoxy)benzyl)amino)-3-hydroxy-2-methylpropanoic acid]",EC50,PD-1/PD-L1 interaction,225 nM
same,AC50,PD-L1,≥ 10000 nM
"Cc1c(COc2cc(OCc3cncc(C#N)c3)c(CNC[C@@H](O)CC(=O)O)cc2Cl)cccc1-c1cccc(-c2ccc3cc(CNC[C@@H](O)CC(=O)O)ccc3n2)c1C [Example 398, (S)-4-(((2-(3′-((4-((((S)-3-carboxy-2-hydroxypropyl)amino)methyl)-2-chloro-5-((5-cyanopyridin-3-yl)methoxy)phenoxy)methyl)-2,2′-dimethyl-[1,1′-biphenyl]-3-yl)quinolin-6-yl)methyl)amino)-3-hydroxybutanoic acid]",EC50,PD-1/PD-L1 interaction,1100 nM
same,AC50,PD-L1,728 nM
"Cc1c(COc2cc(OCc3cncc(C#N)c3)c(CNC[C@@H](O)CC(=O)O)cc2Cl)cccc1-c1cccc(-c2ccc3sc(CNC[C@@H](O)CC(=O)O)nc3c2)c1C [Example 399, (S)-4-(((5-(3′-((4-((((S)-3-carboxy-2-hydroxypropyl)amino)methyl)-2-chloro-5-((5-cyanopyridin-3-yl)methoxy)phenoxy)methyl)-2,2′-dimethyl-[1,1′-biphenyl]-3-yl)benzo[d]thiazol-2-yl)methyl)amino)-3-hydroxybutanoic acid]",EC50,PD-1/PD-L1 interaction,319 nM
same,AC50,PD-L1,289 nM
